Measurements published in patent US20250388858A1, “COMPOSITION FOR EMBRYONIC DEVELOPMENT, COMPRISING RAD51 ACTIVATOR, AND METHOD FOR IMPROVING EMBRYONIC DEVELOPMENT RATE USING SAME” (CHA UNIVERSITY INDUSTRY-ACADEMIC COOPERATION FOUNDATION, priority 2018, published 2025).

Assays:
[1] = tested on: surrogate female ICR mice
Source text: It is reported that a success rate of cloned mouse production is generally about 1% after normal somatic cell cloning. Therefore, implantation and cloned pups formation rates of mice were examined according to treatment of SCNT eggs with RS-1. In detail, SCNT and SCNT+RS-1 oocytes at the 2-cell stage were implanted into the uterus of surrogate female ICR mice at 0.5 days after pseudopregnancy. At 19.5 days after implantation, the somatic cell cloned mice were separated from the uterus of the surrogate mother, and then the cloned mice were nurtured together with normal ICR mice born on the same day by ICR mice smeared with the smell of the surrogate mother.

SCNT eggs (F/T SCNT) [2] = test: Immunostaining of DNA damage biomarker rH2AX and Rad51; format: cell-based, mice
Protocol: In detail, IVF group, SCNT group, and SCNT+RS-1 group fixed in 4% paraformaldehyde were arrested at the 1-cell stage, 2-cell stage, and 4-cell stage, and then incubated with rH2AX (Abcam, ab22551) Rad51 (Abcam, ab63801) for 2 hr, followed by incubation in the presence of goat anti-mouse antibody diluted with PBS/0.1% BSA at 1:200, and goat anti-rabbit antibody at the same concentration for 1 hr. Thereafter, nuclei were stained with DAPI.

SCNT eggs (F/T SCNT) [3] = test: Comet assay for DNA breaks; format: cell-based, mice; settings: SCNT+RS-1 group vs SCNT group; FIG. 6
Protocol: In detail, to examine DNA damage, each sample in a 1 ml tube from which a culture medium was removed was suspended in 1% agarose at 37° C., and then fixed on a pre-coated slide (Trevigen). The slide was incubated at 4° C. for 4 hr, and then immersed in a solution (Trevigen) at 4° C. for 4 hr. The slide was removed from the lysis solution, and immersed in a 1×TAE buffer at 4° C. for 30 min, followed by electrophoresis for 30 min to 40 min. The slide was immersed in 1 M ammonium acetate at room temperature for 30 min, and then fixed at […] After fixing at room temperature for 30 min, incubation was performed at 42° C. for 20 min until agarose was completely dried. Thereafter, staining was performed using a 1×SYBR green I staining solution for 5 min.

SCNT eggs (F/T SCNT) [4] = test: CellROX reactive oxygen species staining of eggs at the 2-cell stage; format: cell-based, mice; settings: SCNT+RS-1 group, FIG. 5A
Protocol: In detail, IVF group, SCNT+RS-1 group, and SCNT group at the 2-cell stage were incubated at 37° C. for 30 min in the dark in a culture medium supplemented with 5 μM of CellROX oxidative stress reagent for 30 min. Thereafter, each group was washed with 0.1% PVA-added D-PBS, and nuclei were stained with Hoechst (Sigma).

SCNT eggs (F/T SCNT) [5] = test: Embryonic development of SCNT eggs cultured with RS-1 (somatic cell cloning efficiency); format: cell-based, mice; settings: for Number of embryos at 2-cell stage (%)+: based on the number of reconstructed oocytes; for Number of embryos at 4-cell stage (%)# / Number of blastocysts (%)# / Number of embryos at 2-cell stage block (%)#: based on the number of embryos at 2-cell stage
Protocol: 5IU PMSG and 5IU hCG hormone were administered into 8-week to 10-week-old female BDF/1 mice. 14 hr after hCG administration, cumulus cells were isolated from superovulated mice using hyaluronidase and eggs were collected. The isolated cumulus cells were refrigerated for use as somatic cell for donor cells, and the isolated eggs were stored in a KSOM culture medium in an incubator at 37° C. until experiments started. Thereafter, to carry out a somatic cell cloning experiment, nuclei were removed from matured eggs, and cumulus cells isolated in advance were directly injected as donor cells. The cumulus cells injected as donor cells were artificially activated in a culture medium containing a Rad51-stimulatory compound 1 (RS-1) for 6 hr. Thereafter, the cells were incubated in the culture medium containing RS-1 reagent for 22 hr. 22 hr later, the cells were incubated in a KSOM culture medium for 72 hr to 96 hr.
First, to examine whether RS-1 induced toxicity to egg development, IVF eggs and SCNT eggs (F/T SCNT) of Example 1 were treated with 0 μM, 1 μM, 5 μM, and 10 μM of RS-1, respectively, and an appropriate concentration was selected.

blastocysts of SCNT eggs = test: Embryonic stem cell establishment from SCNT blastocysts; format: cell-based, mouse; settings: SCNT+RS-1 blastocysts on MEF feeder cells; non-RS-1 treated group 17%; FIG. 9B
Protocol: In detail, blastocysts of each group was cultured on mouse embryonic fibroblast (MEF cells) feeder cells in a mouse embryonic stem cell culture medium. 20% KSR, 0.1 mM β-mercaptoethanol, 1% non-essential amino acids, 100 units/ml penicillin, 100 μg/ml streptomycin (all products available from GIBCO), 1.5×10^3 units/ml of recombination mLif (Chemicon) were used in the culture medium. Subculture was performed using Trypsin-EDTA, and the established embryonic stem cells of somatic cell cloned mice were treated with alkaline phosphatase. The established stem cells were evaluated by histochemical staining.

SCNT eggs (F/T SCNT) [6] = test: LC3B (autophagy) and MitoTracker (mitochondria) staining of eggs; format: cell-based, mice; settings: 2-cell stage; SCNT+RS-1 group; FIG. 3B
Protocol: In detail, to evaluate mitochondria distribution, SCNT-derived somatic cell cloned eggs at the 1-cell stage, 2-cell stage, and 4-cell stage were stained using MitoTracker Orange CMTMRos (Molecular Probes). Mitotracker was used at a concentration of 300 nM in an M16 culture medium supplemented with 0.3% BSA at 37° C. for 30 min in the dark. After washing, the oocytes were fixed and immunofluorescently stained with LC3B antibody and then nuclei were stained with DAPI.

SCNT eggs = test: RNA sequencing of cloned eggs at the 2-cell stage; format: cell-based, mouse; settings: SCNT+RS-1 group
Protocol: To examine the effect of RS-1 treatment on SCNT eggs, RS-1 was treated to cloned eggs at the 2-cell stage during the somatic cell cloning procedure of Example 1, followed by RNA sequencing. At this time, IVF eggs were used as a negative control group. In detail, complementary DNA (cDNA) was amplified using a SMARTer ultra-low input RNA Kit for cDNA preparation (Takara, 634890) according to the manufacturer's instructions. cDNA was fragmented into about 200 bp fragments using a M220 sonicator (Covaris). The fragmented cDNAs were subjected to end-repair, and an adapter was ligated thereto. Sequencing libraries were prepared using a ScriptSeq v2 kit (Illumina) according to the manufacturer's instructions. Single-end sequencing was performed in HiSeq2500 (Illumina), and mapped to the mm9 mouse genome using STAR (v2.5.2b, https://github.com/alexdobin/STAR). Subsequently, […] (FPKM) was calculated by cuff link (v2.2.1) with default options.
To examine cloning mechanisms in the RS-1-treated SCNT egg (SCNT+RS-1) of Example 3 and the cloned egg (SCNT+Kdm4a) injected with Kdm4a mRNA during SCNT of Example 2, genes expressed in each egg were examined in the same manner as in Example 8.

## O=C(Nc1ccc(Br)cc1)c1ccc(Br)c(S(=O)(=O)NCc2ccccc2)c1 [RS-1, 3-[(benzylamino)sulfonyl]-4-bromo-N-(4-bromophenyl)benzamide]
[1]; SCNT+RS-1 oocytes at the 2-cell stage implanted into surrogate ICR mice, generally about 1% after normal cloning, FIG. 9A
  production rate of cloned mouse: 5%
[1]; mouse, in vivo
  toxicity during development: no toxicity problem
SCNT eggs (F/T SCNT) [2]; 1-cell stage, SCNT+RS-1 group vs SCNT group
  DNA damage (rH2AX and Rad51 expression): significant reduction in DNA damage
SCNT eggs (F/T SCNT) [2]; 2-cell stage block, SCNT+RS-1 group compared with other groups
  DNA damage (rH2AX and Rad51 expression): very strong DNA damage in the nucleus
SCNT eggs (F/T SCNT) [3]
  DNA breaks (length of 3'-end, comet assay): DNA breaks were decreased
  generation of the abnormal 3'-end: significantly reduced
SCNT eggs (F/T SCNT) [4]
  reactive oxygen species in the nuclei: tended to increase
SCNT eggs (F/T SCNT) [5]; RS-1 1 μM, 45 NT oocytes
  Number of embryos at 2-cell stage (%)+: 42%
SCNT eggs (F/T SCNT) [5]; RS-1 1 μM
  Number of embryos at 4-cell stage (%)#: 35%
  Number of blastocysts (%)#: 8(19) %
  Number of embryos at 2-cell stage block (%)#: 7(16.7) %
SCNT eggs (F/T SCNT) [5]; RS-1 5 μM, 46 NT oocytes
  Number of embryos at 2-cell stage (%)+: 43%
SCNT eggs (F/T SCNT) [5]; RS-1 5 μM
  Number of embryos at 4-cell stage (%)#: 36%
  Number of blastocysts (%)#: 18(41.9) %
  Number of embryos at 2-cell stage block (%)#: 7(16.3) %
SCNT eggs (F/T SCNT) [5]; RS-1 10 μM, 54 NT oocytes
  Number of embryos at 2-cell stage (%)+: 50%
SCNT eggs (F/T SCNT) [5]; RS-1 10 μM
  Number of embryos at 4-cell stage (%)#: 47%
  Number of blastocysts (%)#: 28(56) %
  Number of embryos at 2-cell stage block (%)#: 3(6) %
SCNT eggs (F/T SCNT) [5]; RS-1 10 μM, control group 31%, Table 1
  embryonic development rate: 76%
SCNT eggs (F/T SCNT) [5]; treatment with RS-1 during SCNT, FIG. 3A, control group 17%
  embryonic development rate: 59%
SCNT eggs (F/T SCNT) [5]; treatment with RS-1 during SCNT, FIG. 3A, control group 39%
  number of embryos at the 2-cell stage block: 5%
Blastocysts of SCNT eggs
  induction rate of embryonic stem cells: 45%
SCNT eggs (F/T SCNT) [6]
  autophagy (LC3B) and mitochondria (mitotracker) expression pattern: intensive autophagy and mitochondria expression in the nucleus
SCNT eggs
  number of genes significantly decreased: 414 genes
  number of genes significantly increased: 190 genes
